Measurements from patent publication US20240059695A1, “SUBSTITUTED IMIDAZO[1,5-b]PYRIDAZINE COMPOUNDS AS KINASE INHIBITORS AND USE THEREOF” (IMPACT THERAPEUTICS (SHANGHAI), INC, priority 2020, published 2024).

Key:
[1] = test system: HCT116 (human colorectal adenocarcinoma cell); assay: MTT proliferation assay of Example 1, HCT116; format: cell-based; settings: HCT-116, 96 h, 4 days
Description: (§1) The cells were digested by trypsinase and centrifuged at 800 rpm for 5 minutes, the supernatant was discarded, and the residual was resuspended with fresh medium (1640 medium+10% FRS) and counted. The cells were seeded into 96well cell culture plate with a density of 2000/4000 cells per well and incubated overnight in a 5% CO2 incubator at 37° C. The stock solutions of the test substances were serially diluted to 8 concentrations by DMSO at the ratios of 1:3 and 1:10, respectively. 5 μL diluent of each concentration was added to […] (25 times diluted) and mixed by shaking. The overnight cell plates were taken and the culture medium was removed, 195 μL of fresh medium was added to each well, and 5 μL of diluted medium containing the corresponding concentration of the test compound was added respectively (the final concentration of DMSO is 1%), and the culture plate was then placed in a 5% CO2 incubator at 37° C for 4 days. After removing the original solution, […] of fresh serum-free DMEM medium containing MTT (0.5 mg/mL) was added to each well, the culture was continued. After 4 hours, the original solution was removed, 100 μL, of DMSO was added to each well, the 96-well plates were shaken for 10 minutes in the dark and placed in a multi-function reader to read the absorbance at the wavelength of 552/690 nm. […]

[2] = test system: human lung cancer NCI-H460 cell; assay: MTT proliferation assay, NCI-H460; format: cell-based; settings: NCI-H460, 96 h, MTT, 4 days, read-out: IC50 (nM), proliferation of NCI-H460 cell
Description: The cells were digested by trypsinase and centrifuged at 800 rpm for 5 minutes, the supernatant was discarded, and the residual was resuspended with fresh medium […]) and counted.
The cells were seeded into 96-well cell culture plate with a density of 2000/4000 cells per well and incubated overnight in a 5% CO2 incubator at 37° C. […] 5 μL diluent of each concentration was added to 120 μL of medium (25 times diluted) and mixed by shaking. The overnight cell plates were taken and the culture medium was removed, 195 μL of fresh medium was added to each well, and 5 μL of diluted medium containing the corresponding concentration of the test compound was added respectively (the final concentration of DMSO is 1%), and the culture plate was then placed in a 5% CO2 incubator at 37° C. for 4 days. After removing the original solution, 100 μL of fresh serum-free DMEM medium containing MTT (0.5 mg/mL) was added to each well, the culture was continued. […] Cell viability (%)=(ODcompound−ODbackground)/(ODDMSO−ODbackground)×100. GraphPad Prism 6.0 was used to analyze the data. The inhibitory activity of compounds on cell proliferation was plotted based on cell viability and the logarithm of compound concentration. The IC50 value was fitted by a sigmoidal dose response curve equation […], wherein C was the concentration of compound.

[3] = test system: human breast cancer HCC1806 cell; assay: MTT proliferation assay of Example 1, HCC1806; format: cell-based; settings: HCC1806, 96 h, 4 days
Description: as §1

[4] = molecular target: T1, ATR/ATRIP enzyme (Homo sapiens, UniProt Q13535); assay: ATR enzyme activity experiment (HTRF); format: biochemical; settings: p53 substrate, 30 min room temperature, read-out: IC50 (nM), inhibitory effect on ATR kinase activity
T1 construct: purchased Eurofins 14-953
Description: The mixture was centrifuged at 1000 rpm for 1 minute, and reacted at room temperature protected from light for 30 minutes. Then 5 μL of EDTA stop solution (250 mM) was added to stop the reaction.

[5] = test system: human non-small cell lung cancer A549 cell; assay: MTT proliferation assay of Example 1, A549; format: cell-based; settings: A549, 96 h, 4 days
Description: as §1

[6] = test system: human ovarian cancer OVCAR-3 cell; assay: Synergistic inhibition of Example 1 in combination with senaparib, MTT assay; format: cell-based; settings: for Combination Index (CI): OVCAR-3, 3 days
Description: The cells were digested by trypsinase and centrifuged at 800 rpm for 5 minutes, the supernatant was discarded, and the residual was resuspended with fresh medium (1640 medium+10% FBS) and counted. The cells were seeded into 96-well cell culture plate with an appropriate density and incubated overnight in a 5% CO2 incubator at 37° C. The stock solutions of the test substances were serially diluted to 4-5 concentrations by DMSO at the ratios of 1:3, respectively. 5 µL diluent of each concentration was added to 120 μL of medium (25 times diluted) and mixed by shaking. The overnight cell plates were taken and the culture medium was removed, […] of fresh medium was added to each well, and 5 μL of diluted compound or 5 μL of medium containing DMSO was added respectively (the final concentration of DMSO is 1%), and the culture plate was then placed in a 5% CO2 incubator at 37° C. for 3 days. After removing the original solution, 100 μL of fresh serum-free DMEM medium containing MTT (0.5 mg/mL) was added to each well, the culture was continued. After 4 hours, the original solution was removed, 100 μL of DMSO was added to each well, the 96-well plates were shaken for 10 minutes in the dark and placed in a multi-function reader to read the absorbance at the wavelength of 552/690 nm. Cell viability (%)=(ODcompound−ODbackground)/(ODDMSO−ODbackground)×100. The combination index (CI) was calculated with the software CalcuSyn.

[7] = test system: human large cell lung cancer NCI-H460 cell; assay: MTT proliferation assay of Example 1, NCI-H460; format: cell-based; settings: NCI-H460, 96 h, 4 days
Description: as §1

[8] = test system: human ovarian cancer OVCAR-3 cell; assay: MTT proliferation assay of Example 1, OVCAR-3; format: cell-based; settings: OVCAR-3, 96 h, 4 days
Description: as §1

T1 sequence (Q13535 whole entry): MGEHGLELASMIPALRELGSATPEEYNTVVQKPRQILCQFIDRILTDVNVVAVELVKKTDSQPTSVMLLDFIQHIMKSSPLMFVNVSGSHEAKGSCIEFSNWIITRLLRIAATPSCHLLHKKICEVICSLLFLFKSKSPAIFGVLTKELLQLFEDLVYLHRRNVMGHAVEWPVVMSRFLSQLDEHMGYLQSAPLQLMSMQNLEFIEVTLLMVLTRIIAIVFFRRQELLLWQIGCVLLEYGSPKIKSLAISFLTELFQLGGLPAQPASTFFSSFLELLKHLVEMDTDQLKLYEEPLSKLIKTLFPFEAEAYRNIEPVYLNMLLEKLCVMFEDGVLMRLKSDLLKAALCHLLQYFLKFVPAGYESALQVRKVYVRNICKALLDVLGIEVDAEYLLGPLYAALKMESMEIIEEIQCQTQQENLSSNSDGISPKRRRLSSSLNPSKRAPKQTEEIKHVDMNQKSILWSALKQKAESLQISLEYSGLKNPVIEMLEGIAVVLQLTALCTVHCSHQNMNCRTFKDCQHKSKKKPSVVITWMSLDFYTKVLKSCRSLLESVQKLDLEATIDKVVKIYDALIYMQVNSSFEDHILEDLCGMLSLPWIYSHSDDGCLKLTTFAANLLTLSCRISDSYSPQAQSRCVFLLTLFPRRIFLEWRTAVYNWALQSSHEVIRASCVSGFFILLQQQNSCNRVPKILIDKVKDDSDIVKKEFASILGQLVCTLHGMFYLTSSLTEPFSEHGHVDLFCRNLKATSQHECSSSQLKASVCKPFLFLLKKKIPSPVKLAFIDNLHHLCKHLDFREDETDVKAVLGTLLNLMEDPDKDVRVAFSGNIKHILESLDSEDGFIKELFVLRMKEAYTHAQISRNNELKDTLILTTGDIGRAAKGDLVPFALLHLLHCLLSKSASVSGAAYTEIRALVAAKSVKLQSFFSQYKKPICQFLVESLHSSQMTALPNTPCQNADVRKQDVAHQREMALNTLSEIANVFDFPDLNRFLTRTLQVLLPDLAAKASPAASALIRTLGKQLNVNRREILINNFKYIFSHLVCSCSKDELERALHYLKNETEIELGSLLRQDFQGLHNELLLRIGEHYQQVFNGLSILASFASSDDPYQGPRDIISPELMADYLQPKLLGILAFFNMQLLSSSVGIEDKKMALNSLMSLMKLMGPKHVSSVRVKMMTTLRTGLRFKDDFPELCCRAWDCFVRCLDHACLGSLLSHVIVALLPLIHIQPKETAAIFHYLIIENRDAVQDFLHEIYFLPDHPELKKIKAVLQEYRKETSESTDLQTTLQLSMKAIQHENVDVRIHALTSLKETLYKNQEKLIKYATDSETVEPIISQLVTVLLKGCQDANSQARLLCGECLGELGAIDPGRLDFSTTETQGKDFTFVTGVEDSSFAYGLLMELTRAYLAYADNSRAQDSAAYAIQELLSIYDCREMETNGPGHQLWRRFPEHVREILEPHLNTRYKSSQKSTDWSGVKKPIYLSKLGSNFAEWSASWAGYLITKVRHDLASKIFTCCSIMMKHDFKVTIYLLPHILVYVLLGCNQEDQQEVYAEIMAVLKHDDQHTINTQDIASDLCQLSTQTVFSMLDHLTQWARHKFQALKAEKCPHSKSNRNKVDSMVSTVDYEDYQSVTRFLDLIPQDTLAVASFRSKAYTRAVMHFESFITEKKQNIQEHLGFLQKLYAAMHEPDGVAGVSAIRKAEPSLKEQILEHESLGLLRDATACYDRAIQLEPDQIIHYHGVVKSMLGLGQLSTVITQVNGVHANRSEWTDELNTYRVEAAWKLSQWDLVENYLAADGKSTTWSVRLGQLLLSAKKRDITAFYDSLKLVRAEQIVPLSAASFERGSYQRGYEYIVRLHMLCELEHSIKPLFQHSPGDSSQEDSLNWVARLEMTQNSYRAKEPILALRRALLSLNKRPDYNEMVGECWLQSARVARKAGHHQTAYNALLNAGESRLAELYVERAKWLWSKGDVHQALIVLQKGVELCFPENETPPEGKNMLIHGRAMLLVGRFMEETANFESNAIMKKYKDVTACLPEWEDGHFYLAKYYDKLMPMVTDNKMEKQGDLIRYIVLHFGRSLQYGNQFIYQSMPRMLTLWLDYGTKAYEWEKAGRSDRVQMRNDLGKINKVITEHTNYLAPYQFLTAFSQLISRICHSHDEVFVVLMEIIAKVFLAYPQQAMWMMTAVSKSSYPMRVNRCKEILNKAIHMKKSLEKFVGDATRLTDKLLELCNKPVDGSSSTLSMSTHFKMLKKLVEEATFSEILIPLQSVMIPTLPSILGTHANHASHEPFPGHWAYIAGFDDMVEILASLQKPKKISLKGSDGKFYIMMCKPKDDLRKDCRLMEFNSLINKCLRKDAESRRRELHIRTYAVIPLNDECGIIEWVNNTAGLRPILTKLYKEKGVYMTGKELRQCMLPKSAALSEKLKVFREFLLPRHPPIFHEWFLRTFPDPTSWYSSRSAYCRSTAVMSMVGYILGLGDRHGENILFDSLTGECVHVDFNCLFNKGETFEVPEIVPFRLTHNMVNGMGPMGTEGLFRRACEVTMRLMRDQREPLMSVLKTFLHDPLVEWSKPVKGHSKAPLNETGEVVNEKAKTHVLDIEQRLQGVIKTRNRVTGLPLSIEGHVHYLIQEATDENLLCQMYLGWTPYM
T1 sequence (Q8WXE1 whole entry partner): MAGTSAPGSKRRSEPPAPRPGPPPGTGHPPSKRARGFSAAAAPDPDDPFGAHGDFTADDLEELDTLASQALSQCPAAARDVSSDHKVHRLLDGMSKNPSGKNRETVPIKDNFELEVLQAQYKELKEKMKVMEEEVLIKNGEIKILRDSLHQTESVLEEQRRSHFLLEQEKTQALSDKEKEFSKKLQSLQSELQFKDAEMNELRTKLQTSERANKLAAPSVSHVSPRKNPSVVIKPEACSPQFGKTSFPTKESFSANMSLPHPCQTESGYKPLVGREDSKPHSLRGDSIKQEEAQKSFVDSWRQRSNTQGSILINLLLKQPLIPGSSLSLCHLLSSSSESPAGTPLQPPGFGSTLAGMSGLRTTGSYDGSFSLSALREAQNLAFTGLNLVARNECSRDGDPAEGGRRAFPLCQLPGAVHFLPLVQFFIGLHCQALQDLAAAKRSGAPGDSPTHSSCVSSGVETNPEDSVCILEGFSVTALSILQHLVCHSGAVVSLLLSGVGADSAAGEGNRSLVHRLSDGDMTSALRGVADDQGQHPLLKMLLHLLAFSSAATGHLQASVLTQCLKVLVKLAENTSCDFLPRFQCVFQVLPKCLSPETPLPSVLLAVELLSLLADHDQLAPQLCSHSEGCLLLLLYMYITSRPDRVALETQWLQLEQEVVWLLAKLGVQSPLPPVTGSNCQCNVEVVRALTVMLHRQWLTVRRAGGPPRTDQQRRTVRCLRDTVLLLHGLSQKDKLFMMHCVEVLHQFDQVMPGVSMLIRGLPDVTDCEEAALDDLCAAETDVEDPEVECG

## Cc1nc(-c2ccn[nH]2)n2nc(N3CCOC[C@H]3C)cc(-c3ccnn3C)c12 [Example 1, (R)-3-methyl-4-(5-methyl-4-(1-methyl-1H-pyrazol-5-yl)-7-(1H-pyrazol-5-yl)imidazo[1,5-b]pyridazin-2-yl)morpholine]
[1]
  IC50: 22.5 nM
[2]
  IC50: 16.5 nM
[3]
  IC50: 38.8 nM
[4]
  IC50: 1 nM
[5]
  IC50: 157 nM
[6]; 11 nM Example 1 + 37 nM senaparib
  Combination Index (CI): 1.157
[6]; 11 nM Example 1 + 111 nM senaparib
  Combination Index (CI): 0.215
[6]; 11 nM Example 1 + 333 nM senaparib
  Combination Index (CI): 0.069
[6]; 11 nM Example 1 + 1000 nM senaparib
  Combination Index (CI): 0.052
[6]; 11 nM Example 1 + 3000 nM senaparib
  Combination Index (CI): 0.044
[6]; 33 nM Example 1 + 37 nM senaparib
  Combination Index (CI): 0.275
[6]; 33 nM Example 1 + 111 nM senaparib
  Combination Index (CI): 0.213
[6]; 33 nM Example 1 + 333 nM senaparib
  Combination Index (CI): 0.18
[6]; 33 nM Example 1 + 1000 nM senaparib
  Combination Index (CI): 0.148
[6]; 33 nM Example 1 + 3000 nM senaparib
  Combination Index (CI): 0.12
[6]; 100 nM Example 1 + 37 nM senaparib
  Combination Index (CI): 0.603
[6]; 100 nM Example 1 + 111 nM senaparib
  Combination Index (CI): 0.544
[6]; 100 nM Example 1 + 333 nM senaparib
  Combination Index (CI): 0.488
[6]; 100 nM Example 1 + 1000 nM senaparib
  Combination Index (CI): 0.424
[6]; 100 nM Example 1 + 3000 nM senaparib
  Combination Index (CI): 0.364
[6]; 300 nM Example 1 + 37 nM senaparib
  Combination Index (CI): 1.588
[6]; 300 nM Example 1 + 111 nM senaparib
  Combination Index (CI): 1.471
[6]; 300 nM Example 1 + 333 nM senaparib
  Combination Index (CI): 1.377
[6]; 300 nM Example 1 + 1000 nM senaparib
  Combination Index (CI): 1.276
[6]; 300 nM Example 1 + 3000 nM senaparib
  Combination Index (CI): 1.195
[6]; combination of Example 1 and senaparib
  synergistic effect on inhibiting the proliferation of OVCAR-3 cells (in words): good synergistic effect
[7]
  IC50: 19 nM
[8]
  IC50: 182 nM
